Here are results for one compound from patent US10905675B2, “Use of carbamate compound for prevention, alleviation or treatment of pruritus” (SK BIOPHARMACEUTICALS CO., LTD., priority 2016, dated 2021).

Assay [1] deals with chronic pruritus induced by administration of capsaicin immediately after birth. The assay can be described thus: Chronic pruritus animal model induced by subcutaneous administration of capsaicin immediately after birth (scratching reactions). It counts as in vivo, rats (Sprague-Dawley). Conditions: rats, oral 30 mg/kg, 1 hour before measurement, third week after capsaicin, scratching counted for 1 hour. The procedure:
Baby rats within 48 hours after birth (Sprague-Dawley, 7 to 10 g) were obtained together with the mother rats, and were used. The experimental animals were maintained at a light-and-darkness cycle of 12 hours (illuminated from 7 pm to 7 am), a temperature of 22 to 25° C., a relative humidity of 40 to 60%, and free access to water and food. Until the 21st day after birth, the baby rats were bred together with the mother rats and allowed to drink the mother's milk. After the 21st day, the baby rats were kept off the milk and separated from the mother rats. The animals were randomly divided into two groups as follows: • Seven (7) rats as a control group, orally administered with 30% PEG400 as a vehicle at a dose of 5 ml/kg • Seven (7) rats, orally administered with the test compound at a dose of 30 mg/kg (5 ml/kg) […]
On the third week after capsaicin administration, the animals were placed in an acrylic box (20×30×20 cm), adapted for 30 minutes in a quiet area, and then observed for the number of scratching behaviors for 1 hour. One continuous scratching reaction was counted as one scratching reaction. […]

Assay [2] has as its system acute pruritus induced by intradermal administration of serotonin. The assay is described as follows: Acute pruritus animal model induced by intradermal administration of serotonin (scratching reactions). It counts as in vivo, rats (Sprague-Dawley). To be noted: rats; for inhibition of acute pruritus (number of scratching reactions) compared to the control group: 1 hour before intradermal serotonin, scratching counted for 30 minutes. The procedure:
Mature male rats (Sprague-Dawley, 200 to 230 g) were used. The experimental animals were maintained at a light-and-darkness cycle of 12 hours (illuminated from 7 pm to 7 am), a temperature of 22 to 25° C., a relative humidity of 40 to 60%, and free access to water and food. The animals were randomly divided into three groups as follows: • Eight (8) rats as a control group, orally administered with 30% PEG400 as a vehicle at a dose of 5 ml/kg • Eight (8) rats, orally administered with the test compound at a dose of 10 mg/kg (5 ml/kg) • Eight (8) rats, orally administered with the test compound at a dose of 30 mg/kg (5 ml/kg)
On the day before the experiment, the skin fur on the right scapula of the rats was shaved to an area of about 2 cm square. On the day of the experiment, serotonin hydrochloride was dissolved in 0.9% physiological saline at a concentration of 4 mg/ml. The rats were placed in an acrylic box (20×30×20 cm) and adapted for 15 minutes in a quiet area, followed by intradermal administration of the dissolved serotonin in 50 μl per rat on the shaved area (Thomsen et al, Scratch induction in the rat by intradermal serotonin: a model for pruritus, Acta Derm Venereol, 2001).
Only when the rats scratched body parts within 5 cm square around the skin area where serotonin was administered, it was judged to be a valid scratching reaction.
The test compound was orally administered to the rats at a dose of 10 mg/kg (5 ml/kg) and 30 mg/kg (5 ml/kg) 1 hour before intradermal administration of serotonin.

Each structure is given as a SMILES string.

Take `NC(=O)O[C@@H](Cn1ncnn1)c1ccccc1Cl` [the test compound]: the “inhibition of chronic pruritus (number of scratching reactions) compared to the control group” value in assay [1] is listed as “statistically significantly inhibited”. In addition, the “dose dependence of the reduction of itching responses” value in assay [2] (oral 10 mg/kg and 30 mg/kg) is recorded as “dose-dependent”. In addition, the “inhibition of acute pruritus (number of scratching reactions) compared to the control group” value in assay [2] (oral 10 mg/kg) and in assay [2] (oral 30 mg/kg) was “statistically significantly inhibited” in each case.
